Laboratory results as given in US20240350478A1, “APPLICATION OF BENZISOQUINOLINE DIKETONE COMPOUND IN TREATMENT OF TUMOR” (NANJING SHIJIANG MEDICINE TECHNOLOGY CO., LTD, priority 2021, published 2024).
Counter-ions that a name gives are not always drawn.

Tests used:
Type in all cases: cell-based
[1] = tested on: CFPAC-1 (human pancreatic cancer cell); test: CellTiter-Glo cell viability, CFPAC-1; details: insensitive group, 3-4 days of culture, n=3
Method: (§1) The inhibitory effect of pixantrone maleate on various tumor cell lines was detected using cell activity detection reagent. • Cell viability was detected using the Promega CellTiter-Glo kit, cell viability was determined by directly measuring intracellular ATP content. In the experiment, the IC50 value of pixantrone maleate on various tumor cell lines was determined. Each tumor cell was cultured separately in relevant medium (+p/s), and was incubated for 3 h, then the gradient diluted pixantrone maleate was added. After 3-4 days of culture, the relevant IC50 (50% inhibiting concentration) was measured (n=3). The name, source and culture conditions of each tumor cell line were as follows: Cell line CFPAC-1 (ATCC, No. CRL-1918) was cultured in 10% fetal bovine serum-containing IMDM medium (+P/S).

[2] = tested on: MDA-MB-453 (breast cancer cell); test: CellTiter-Glo cell viability, MDA-MB-453; details: Homo sapiens, sensitive group, 3-4 days of culture, n=3
Method: as §1, with “MDA-MB-453” for “CFPAC-1”, “HTB-131)” for “CRL-1918)”, “Leibovitz's L-15” for “IMDM”

[3] = tested on: NCI-H82 (human small cell lung cancer cell); test: CellTiter-Glo cell viability, NCI-H82; details: sensitive group, 3-4 days of culture, n=3
Method: as §1, with “NCI-H82” for “CFPAC-1”, “HTB-175)” for “CRL-1918)”, “RPMI1640” for “IMDM”

[4] = tested on: SW48 (human colon adenocarcinoma cell); test: CellTiter-Glo cell viability, SW48; details: sensitive group, 3-4 days of culture, n=3
Method: as §1, with “SW48” for “CFPAC-1”, “CCL-231)” for “CRL-1918)”, “Leibovitz's L-15” for “IMDM”

NCI-H82 (ov-NNMT) cell = test: CellTiter-Glo cell viability, NNMT protein-overexpressing NCI-H82 (ov-NNMT) cell; details: Homo sapiens, n=3
Description: (§2) The NNMT protein-overexpressing NCI-H82 cell (NCI-H82 (ov-NNMT)) was obtained by inserting the NNMT gene into NCI-H82 cell using a viral vector. The control NCI-H82 cell (NCI-H82 (Con)) was obtained by transfecting NCI-H82 cell with empty virus vector without carrying NNMT gene. The expressing level of NNMT protein in control NCI-H82 cell (NCI-H82 (Con)) and NNMT protein-overexpressing NCI-H82 cell (NCI-H82 (ov-NNMT)) was detected using Western Blot assay (as shown in FIG. 7), it could be seen from FIG. 7 that the NNMT protein in NCI-H82 (ov-NNMT) cell was overexpressed compared with the expression level of NNMT protein in NCI-H82(Con) cell. The IC50 value of pixantrone maleate on control NCI-H82 cell (NCI-H82 (Con)) and NNMT protein-overexpressing NCI-H82 cell (NCI-H82 (ov-NNMT)) was determined using Promega CellTiter-Glo kit which detected cell viability by directly measuring intracellular ATP content (n=3), the experiment result was shown in Table 4 below: […]

NCI-H82 (Con) cell = test: CellTiter-Glo cell viability, control NCI-H82 (Con) cell; details: Homo sapiens; control NCI-H82 cell transfected with empty virus vector; n=3
Description: as §2

[5] = tested on: G-401 (human renal carcinoma Wilms cell); test: CellTiter-Glo cell viability, G-401; details: sensitive group, 3-4 days of culture, n=3
Method: as §1, with “G-401” for “CFPAC-1”, “CRL-1441)” for “CRL-1918)”, “McCoy's 5a” for “IMDM”

[6] = tested on: WSU-DLCL2 (human diffuse large B-cell lymphoma); test: CellTiter-Glo cell viability, WSU-DLCL2; details: WSUDLCL2, sensitive group, 3-4 days of culture, n=3
Method: as §1, with “WSU-DLCL2 (DSMZ,” for “CFPAC-1 (ATCC,”, “ACC-575)” for “CRL-1918)”, “RPMI1640” for “IMDM”

[7] = tested on: GB-1 (human glioblastoma cell); test: CellTiter-Glo cell viability, GB-1; details: insensitive group, 3-4 days of culture, n=3
Method: as §1, with “GB-1 (JCRB,” for “CFPAC-1 (ATCC,”, “IFO50489)” for “CRL-1918)”, “DMEM” for “IMDM”

[8] = tested on: SF-126 (human glioblastoma multiforme cell); test: CellTiter-Glo cell viability, SF-126; details: insensitive group, 3-4 days of culture, n=3
Method: as §1, with “SF126 (JCRB,” for “CFPAC-1 (ATCC,”, “IFO50286)” for “CRL-1918)”, “EMEM” for “IMDM”

[9] = tested on: 786-O (clear cell renal cell adenocarcinoma cell); test: CellTiter-Glo cell viability, 786-O; details: Homo sapiens, 786-0, insensitive group, 3-4 days of culture, n=3
Method: as §1, with “786-0” for “CFPAC-1”, “CRL-1932)” for “CRL-1918)”, “RPMI1640” for “IMDM”

## NCCNc1ccc(NCCN)c2c1C(=O)c1ccncc1C2=O [Pixantrone maleate, pixantrone maleate]
[1]
  IC50: 11700 nM
[2]
  IC50: 860 nM
[3]
  IC50: 740 nM
[4]
  IC50: 20 nM
NCI-H82 (ov-NNMT) cell
  IC50: 1930 nM
NCI-H82 (Con) cell
  IC50: 690 nM
[5]
  IC50: 290 nM
[6]
  IC50: 20 nM
[7]
  IC50: 6560 nM
[8]
  IC50: 5420 nM
[9]
  IC50: 21600 nM
